In US9833497B2, “Human originated EGF domain proteins and use of the same” (CHENGDU SOURCEBIO LIMITED-LIABILITY COMPANY, priority 2013, dated 2017):

Key:
Type in all cases: cell-based
Serratia marcescens = experiment: MIC against Gram-negative bacteria: Serratia marcescens; conditions: for MIC against S. marcescens: 96-well plate, 37° C., 10 h
Summary of the method: (§1)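 Bacteria grown in LB at 37° C with shaking to McFarland 0.5, pelleted and resuspended in fresh LB, then seeded at 5×10^5 CFU/mL per well. Purified recombinant human EGF domain proteins were two-fold serially diluted in triplicate and plates shaken at 37° C, 175 rpm. MIC is the lowest protein concentration with no bacterial growth.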

Proteus vulgaris = experiment: MIC against Gram-negative bacteria: Proteus vulgaris; conditions: for MIC against P. vulgaris: 96-well plate, 37° C., 10 h
Summary of the method: as §1

Pseudomonas aeruginosa = experiment: MIC against Gram-negative bacteria: Pseudomonas aeruginosa; conditions: for MIC against P. aeruginosa: 96-well plate, 37° C., 10 h
Summary of the method: as §1

Moraxella catarrhalis = experiment: MIC against Gram-negative bacteria: Moraxella catarrhalis; conditions: for MIC against M. catarrhalis: 96-well plate, 37° C., 10 h
Summary of the method: as §1

E. coli DH5α = experiment: Antibacterial activity: MIC and growth curve against E. coli DH5α in 96-well plate; conditions: minimal inhibitory concentration against E. coli DH5α; 96-well plate, 5×10^5 CFU/mL, 37° C., judged after 8 h
Summary of the method: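 MIC taken as lowest protein level with no bacterial growth, tracked by A600 every 30 min during 37 °C, 175 rpm culture. Two-fold protein series 50-12.5 μg/mL final, triplicate wells, against 5×10^5 CFU/mL of LB-washed mid-log cells.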

Aeromonas hydrophila = experiment: MIC against Gram-negative bacteria: Aeromonas hydrophila; conditions: for MIC against A. hydrophila: 96-well plate, 37° C., 10 h
Summary of the method: as §1

Enterobacter cloacae = experiment: MIC against Gram-negative bacteria: Enterobacter cloacae; conditions: for MIC against E. cloacae: 96-well plate, 37° C., 10 h
Summary of the method: as §1

Klebsiella pneumonia = experiment: MIC against Gram-negative bacteria: Klebsiella pneumonia; conditions: for MIC against K. pneumonia: 96-well plate, 37° C., 10 h
Summary of the method: as §1

E. coli BL21 = experiment: MIC against Gram-negative bacteria: E. coli BL21; conditions: for MIC against E. coli BL21: 96-well plate, 37° C., 10 h
Summary of the method: as §1

Citrobacter diversus = experiment: MIC against Gram-negative bacteria: Citrobacter diversus; conditions: for MIC against C. diversus: 96-well plate, 37° C., 10 h
Summary of the method: as §1

Proteus mirabilis = experiment: MIC against Gram-negative bacteria: Proteus mirabilis; conditions: for MIC against P. mirabilis: 96-well plate, 37° C., 10 h
Summary of the method: as §1

[1] = 10 h cultivation at 37° C., 5×10^5 CFU/mL, two-fold serial dilution
[2] = S. marcescens, 10 h cultivation at 37° C., 5×10^5 CFU/mL
[3] = P. vulgaris, 10 h cultivation at 37° C., 5×10^5 CFU/mL
[4] = P. aeruginosa, 10 h cultivation at 37° C., 5×10^5 CFU/mL
[5] = M. catarrhalis, 10 h cultivation at 37° C., 5×10^5 CFU/mL
[6] = A. hydrophila, 10 h cultivation at 37° C., 5×10^5 CFU/mL
[7] = E. cloacae, 10 h cultivation at 37° C., 5×10^5 CFU/mL
[8] = K. pneumonia, 10 h cultivation at 37° C., 5×10^5 CFU/mL
[9] = E. coli BL21, 10 h cultivation at 37° C., 5×10^5 CFU/mL
[10] = C. diversus, 10 h cultivation at 37° C., 5×10^5 CFU/mL
[11] = P. mirabilis, 10 h cultivation at 37° C., 5×10^5 CFU/mL

Substance | MIC (E. coli DH5α) | MIC (μg/mL) S. marcescens (Serratia marcescens; [2]) | MIC (μg/mL) P. vulgaris (Proteus vulgaris; [3]) | MIC (μg/mL) P. aeruginosa (Pseudomonas aeruginosa; [4]) | MIC (μg/mL) M. catarrhalis (Moraxella catarrhalis; [5]) | MIC (μg/mL) A. hydrophila (Aeromonas hydrophila; [6]) | MIC (μg/mL) E. cloacae (Enterobacter cloacae; [7]) | MIC (μg/mL) K. pneumonia (Klebsiella pneumonia; [8]) | MIC (μg/mL) E. coli BL21 (E. coli BL21; [9]) | MIC (μg/mL) C. diversus (Citrobacter diversus; [10]) | MIC (μg/mL) P. mirabilis (Proteus mirabilis; [11]) | MIC against S. marcescens (Serratia marcescens; 5×10^5 CFU/mL) | MIC against P. vulgaris (Proteus vulgaris; 5×10^5 CFU/mL) | MIC against P. aeruginosa (Pseudomonas aeruginosa; 5×10^5 CFU/mL) | MIC against M. catarrhalis (Moraxella catarrhalis; 5×10^5 CFU/mL) | MIC against A. hydrophila (Aeromonas hydrophila; 5×10^5 CFU/mL) | MIC against E. cloacae (Enterobacter cloacae; 5×10^5 CFU/mL) | MIC against K. pneumonia (Klebsiella pneumonia; 5×10^5 CFU/mL) | MIC against E. coli BL21 (E. coli BL21; 5×10^5 CFU/mL) | MIC against C. diversus (Citrobacter diversus; 5×10^5 CFU/mL) | also measured
PRT1183 (NIDDCLGQPCRNGGTCIDEVDAFRCFCPSGWEGELCD; listed as Homo sapiens) | 25 µg/mL |  |  |  |  |  |  |  |  |  |  |  |  |  |  |  |  |  |  |  | MIC S. marcescens (Serratia marcescens; [1]): 12.5 µg/mL; MIC P. vulgaris (Proteus vulgaris; [1]): 25 µg/mL; MIC P. aeruginosa (Pseudomonas aeruginosa; [1]): 25 µg/mL; MIC M. catarrhalis (Moraxella catarrhalis; [1]): 25 µg/mL; MIC A. hydrophila (Aeromonas hydrophila; [1]): 25 µg/mL; MIC E. cloacae (Enterobacter cloacae; [1]): 50 µg/mL; MIC K. pneumonia (Klebsiella pneumonia; [1]): 12.5 µg/mL; MIC E. coli BL21 (E. coli BL21; [1]): 50 µg/mL; MIC C. diversus (Citrobacter diversus; [1]): 12.5 µg/mL; MIC P. mirabilis (Proteus mirabilis; [1]): 50 µg/mL
PRT754 (IQDLCAMEDHNCEQLCVNVPGSFVCQCYSGYALAEDGKRCV; listed as Homo sapiens) | 25 µg/mL | 25 µg/mL | 50 µg/mL | 50 µg/mL | 25 µg/mL | 25 µg/mL | 12.5 µg/mL | 25 µg/mL | 12.5 µg/mL | 50 µg/mL | 12.5 µg/mL |  |  |  |  |  |  |  |  |  | 
PRT503 (CACPLTIASNNFSPTCHLNDGDEVVCDWCAPGYSGAWCERCADGYYGNPTVPGESCVP; listed as Homo sapiens) | 12.5 µg/mL |  |  |  |  |  |  |  |  |  |  | 50 µg/mL | 12.5 µg/mL | 50 µg/mL | 12.5 µg/mL | 25 µg/mL | 12.5 µg/mL | 25 µg/mL | 25 µg/mL | 50 µg/mL | MIC against P. mirabilis (Proteus mirabilis; 5×10^5 CFU/mL): 50 µg/mL
PRT921 (NIDDCASAACFHGATCHDRVASFYCECPHGRTGLLCH; listed as Homo sapiens) | 12.5 µg/mL |  |  |  |  |  |  |  |  |  |  |  |  |  |  |  |  |  |  |  | MIC (Serratia marcescens; S. marcescens, 10 h cultivation at 37° C.): 12.5 µg/mL; MIC (Proteus vulgaris; P. vulgaris, 10 h cultivation at 37° C.): 25 µg/mL; MIC (Pseudomonas aeruginosa; P. aeruginosa, 10 h cultivation at 37° C.): 25 µg/mL; MIC (Moraxella catarrhalis; M. catarrhalis, 10 h cultivation at 37° C.): 25 µg/mL; MIC (Aeromonas hydrophila; A. hydrophila, 10 h cultivation at 37° C.): 25 µg/mL; MIC (Enterobacter cloacae; E. cloacae, 10 h cultivation at 37° C.): 12.5 µg/mL; MIC (Klebsiella pneumonia; K. pneumonia, 10 h cultivation at 37° C.): 12.5 µg/mL; MIC (E. coli BL21; E. coli BL21, 10 h cultivation at 37° C.): 12.5 µg/mL; MIC (Citrobacter diversus; C. diversus, 10 h cultivation at 37° C.): 12.5 µg/mL; MIC (Proteus mirabilis; P. mirabilis, 10 h cultivation at 37° C.): 12.5 µg/mL
PRT889 (DVNECVSNPCQNDATCLDQIGEFQCICMPGYEGVHCE; listed as Homo sapiens) | 25 µg/mL | 25 µg/mL | 12.5 µg/mL | 25 µg/mL | 12.5 µg/mL | 12.5 µg/mL | 12.5 µg/mL | 12.5 µg/mL | 12.5 µg/mL | 12.5 µg/mL | 25 µg/mL |  |  |  |  |  |  |  |  |  | 
PRT543 (CGCHEVGATGPTCEPFGGQCPCHAHVIGRDCSRCATGYWGFPNCRP; listed as Homo sapiens) | 12.5 µg/mL |  |  |  |  |  |  |  |  |  |  | 25 µg/mL | 50 µg/mL | 12.5 µg/mL | 12.5 µg/mL | 50 µg/mL | 12.5 µg/mL | 50 µg/mL | 50 µg/mL | 25 µg/mL | MIC against P. mirabilis (Proteus mirabilis; 5×10^5 CFU/mL): 25 µg/mL
